Oligonucleotides are given in HELM: sugar(base)linkage, 5' to 3'; d 2'-deoxyribose, r ribose, m 2'-O-methylribose, p phosphate. ss, as = sense and antisense strand
Target: Cacnb1 (rat)
Assay: reporter assay of Huesken 2005
Conditions: siRNA
Note: test concentration or dose not given here.

RNA1{r(C)p.r(C)p.r(C)p.r(G)p.r(C)p.r(C)p.r(A)p.r(A)p.r(G)p.r(A)p.r(C)p.r(A)p.r(C)p.r(C)p.r(U)p.r(U)p.r(U)p.r(G)p.r(A)p.d(T)p.d(T)}|RNA2{r(U)p.r(C)p.r(A)p.r(A)p.r(A)p.r(G)p.r(G)p.r(U)p.r(G)p.r(U)p.r(C)p.r(U)p.r(U)p.r(G)p.r(G)p.r(C)p.r(G)p.r(G)p.r(G)p.d(A)p.d(T)}$$$RNA1{StrandType:ss}|RNA2{StrandType:as}$
normalised inhibition (eCFP-eYFP dual reporter): 57.6%
